Where two headings read alike, the source gives them in different places.
Legend:
TRPML1 = biological target: T1, TRPML1 (Homo sapiens, UniProt Q9GZU1); experiment: Cellular TRPML1 assay (FLIPR, GCaMP6f calcium read-out); assay type: cell-based
T1 construct: expressed in transfected cells; host or cells: HEK T-REx cells stably expressing GCaMP6f and TRPML1
Outline: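 HEK T-REx cells stably expressing TRPML1 and GCaMP6f, seeded 24 h before in Optimem + 0.5% FBS. After ~10 min pre-incubation at room temperature, compounds in Ca2+-free Tyrode's buffer were injected on FLIPR Tetra (final DMSO 0.5%). Calcium fluorescence kinetics followed for 300 s.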

TFEB = TFEB translocation assay (TFEB reporter in U2OS cells, imaging); assay type: cell-based; conditions: Homo sapiens; U2OS cell line with TFEB reporter, 2 hours incubation, nucleus to cytoplasm ratio, normalized to Torin-1; read-out: TFEB Translocation pEC50 (converted)
Outline: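 U2OS cells stably expressing mRFP-fused TFEB reporter, switched to Opti-MEM then treated 2 h at 37 °C with compounds (0.5% DMSO, 0.015% Tween 80). Hoechst-stained, PFA-fixed cells imaged at 20×; nucleus/cytoplasm intensity ratio per well normalized to Torin-1 (100%) and DMSO (0%).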

[1] = HEKT-REx/GCaMP6f/TRPML1 cells, FLIPR TETRA, kinetic response over 300 seconds, read-out: TRPML1 FLIPR pEC50 (converted)

T1 sequence (Q9GZU1 whole entry): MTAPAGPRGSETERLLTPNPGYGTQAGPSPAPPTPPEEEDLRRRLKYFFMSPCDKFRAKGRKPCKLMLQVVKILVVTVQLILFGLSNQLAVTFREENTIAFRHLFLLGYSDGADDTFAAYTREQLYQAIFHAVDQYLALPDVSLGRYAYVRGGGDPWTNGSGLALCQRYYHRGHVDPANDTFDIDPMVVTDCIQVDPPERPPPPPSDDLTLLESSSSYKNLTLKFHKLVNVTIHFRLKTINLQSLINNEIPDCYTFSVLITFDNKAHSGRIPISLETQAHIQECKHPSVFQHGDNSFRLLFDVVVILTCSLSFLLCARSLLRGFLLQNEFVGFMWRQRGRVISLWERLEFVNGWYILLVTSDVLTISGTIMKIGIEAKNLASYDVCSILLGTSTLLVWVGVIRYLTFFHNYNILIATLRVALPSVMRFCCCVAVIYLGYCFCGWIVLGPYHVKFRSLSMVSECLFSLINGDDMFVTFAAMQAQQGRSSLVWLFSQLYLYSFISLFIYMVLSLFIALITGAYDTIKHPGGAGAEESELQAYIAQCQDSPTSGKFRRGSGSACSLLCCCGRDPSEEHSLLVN

Row | SMILES | EC50 (TRPML1; [1]) | EC50 (TFEB) | EC50 (TRPML1)
1 | O=C(Nc1ccc(OC2CCCC2(F)F)c(F)c1)c1nc(N2CCCC2)oc1CC(F)(F)F (centres unmarked) [Example 22, N-{4-[(2,2-difluorocyclopentyl)oxy]-3-fluorophenyl}-2-(pyrrolidin-1-yl)-5-(2,2,2-trifluoroethyl)oxazole-4-carboxamide] | 10 to 1000 nM | 10 to 1000 nM | –
2 | Cc1oc(N2CCCC2)nc1C(=O)Nc1ccc(N2CCCCC2)c(F)c1 [Example 112, N-(3-fluoro-4-(piperidin-1-yl)phenyl)-5-methyl-2-(pyrrolidin-1-yl)oxazole-4-carboxamide] | 1000 to 10000 nM | 1000 to 10000 nM | –
3 | CCc1oc(N2CC(CC)(OC)C2)nc1C(=O)Nc1cc(F)c(N2CC3CC(C3)C2)c(F)c1 [Example 254, N-(4-(3-azabicyclo[3.1.1]heptan-3-yl)-3,5-difluorophenyl)-5-ethyl-2-(3-ethyl-3-methoxyazetidin-1-yl)oxazole-4-carboxamide] | – | 10 to 1000 nM | 10 to 1000 nM
4 | O=C(Nc1ccc(N2CC3CC(C3)C2)c(F)c1)c1nc(N2CCC3(COC3)C2)oc1CC(F)(F)F [Example 202, N-(4-(3-azabicyclo[3.1.1]heptan-3-yl)-3-fluorophenyl)-2-(2-oxa-6-azaspiro[3.4]octan-6-yl)-5-(2,2,2-trifluoroethyl)oxazole-4-carboxamide] | – | 10 to 1000 nM | 10 to 1000 nM
5 | COC1(C)CN(c2nc(C(=O)Nc3cc(F)c(O[C@@H]4C[C@@H]5C[C@@H]5C4)c(Cl)c3)c(CC(F)(F)F)o2)C1 [Example 130, N-(4-(cis-bicyclo[3.1.0]hexan-3-yloxy)-3-chloro-5-fluorophenyl)-2-(3-methoxy-3-methylazetidin-1-yl)-5-(2,2,2-trifluoroethyl)oxazole-4-carboxamide] | 10 to 1000 nM | 10 to 1000 nM | –
6 | CCc1oc(N2CC(CC)(OC)C2)nc1C(=O)Nc1cc(F)c(O[C@@H]2C[C@@H]3C[C@@H]3C2)c(Cl)c1 [Example 219, N-(4-(cis-bicyclo[3.1.0]hexan-3-yloxy)-3-chloro-5-fluorophenyl)-5-ethyl-2-(3-ethyl-3-methoxyazetidin-1-yl)oxazole-4-carboxamide] | 10 to 1000 nM | 10 to 1000 nM | –
7 | COCc1oc(N2CC(C)(CO)C2)nc1C(=O)Nc1cc(C)c(OC2CC3CC(C3)C2)c(F)c1 (centres unmarked) [Example 296, N-(4-(bicyclo[3.1.1]heptan-3-yloxy)-3-fluoro-5-methylphenyl)-2-(3-(hydroxymethyl)-3-methylazetidin-1-yl)-5-(methoxymethyl)oxazole-4-carboxamide] | 10 to 1000 nM | 10 to 1000 nM | –
8 | CCc1oc(N2CC(C)(OC)C2)nc1C(=O)Nc1cc(F)c(O[C@@H]2C[C@@H]3C[C@@H]3C2)c(Cl)c1 [Example 223, N-(4-(cis-bicyclo[3.1.0]hexan-3-yloxy)-3-chloro-5-fluorophenyl)-5-ethyl-2-(3-methoxy-3-methylazetidin-1-yl)oxazole-4-carboxamide] | 10 to 1000 nM | 10 to 1000 nM | –
9 | O=C(Nc1cc(F)c(O[C@@H]2C[C@@H]3C[C@@H]3C2)c(F)c1)c1nc(N2CCC3OCCC32)oc1CC(F)(F)F (stereo partly drawn) [Example 157, N-(4-(cis-bicyclo[3.1.0]hexan-3-yloxy)-3,5-difluorophenyl)-2-(hexahydro-4H-furo[3,2-b]pyrrol-4-yl)-5-(2,2,2-trifluoroethyl)oxazole-4-carboxamide] | 10 to 1000 nM | 10 to 1000 nM | –
10 | O=C(Nc1ccc(N2CCCCC2)c(F)c1)c1nc(N2CCC3(COC3)C2)oc1CC(F)(F)F [Example 33, N-(3-fluoro-4-(piperidin-1-yl)phenyl)-2-(2-oxa-6-azaspiro[3.4]octan-6-yl)-5-(2,2,2-trifluoroethyl)oxazole-4-carboxamide] | 10 to 1000 nM | 1000 to 10000 nM | –
11 | CCC1(CC)CN(c2nc(C(=O)Nc3cc(F)c(OC4CC5CC(C5)C4)c(F)c3)c(CC(F)(F)F)o2)C1 (centres unmarked) [Example 145, N-(4-(bicyclo[3.1.1]heptan-3-yloxy)-3,5-difluorophenyl)-2-(3,3-diethylazetidin-1-yl)-5-(2,2,2-trifluoroethyl)oxazole-4-carboxamide] | 10 to 1000 nM | 10 to 1000 nM | –
12 | COCC1(C)CN(c2nc(C(=O)Nc3cc(C)c(O[C@@H]4C[C@@H]5C[C@@H]5C4)c(F)c3)c(CC(F)(F)F)o2)C1 [Example 124, N-(4-(cis-bicyclo[3.1.0]hexan-3-yloxy)-3-fluoro-5-methylphenyl)-2-(3-(methoxymethyl)-3-methylazetidin-1-yl)-5-(2,2,2-trifluoroethyl)oxazole-4-carboxamide] | 10 to 1000 nM | 10 to 1000 nM | –
13 | COC1(C)CN(c2nc(C(=O)Nc3cc(F)c(N4C5CCCC4CC5)c(C#N)c3)c(CC(F)(F)F)o2)C1 [Example 196, N-(4-(8-azabicyclo[3.2.1]octan-8-yl)-3-cyano-5-fluorophenyl)-2-(3-methoxy-3-methylazetidin-1-yl)-5-(2,2,2-trifluoroethyl)oxazole-4-carboxamide] | – | 10 to 1000 nM | 10 to 1000 nM
14 | CCC1(OC)CN(c2nc(C(=O)Nc3ccc(O[C@@H]4C[C@@H]5C[C@@H]5C4)c(F)c3)c(CC(F)(F)F)o2)C1 [Example 159, N-(4-(cis-bicyclo[3.1.0]hexan-3-yloxy)-3-fluorophenyl)-2-(3-ethyl-3-methoxyazetidin-1-yl)-5-(2,2,2-trifluoroethyl)oxazole-4-carboxamide] | 10 to 1000 nM | 10 to 1000 nM | –
15 | CCC1(CO)CN(c2nc(C(=O)Nc3cc(F)c(O[C@@H]4C[C@@H]5C[C@@H]5C4)c(Cl)c3)c(CC(F)(F)F)o2)C1 [Example 126, N-(4-(cis-bicyclo[3.1.0]hexan-3-yloxy)-3-chloro-5-fluorophenyl)-2-(3-ethyl-3-(hydroxymethyl)azetidin-1-yl)-5-(2,2,2-trifluoroethyl)oxazole-4-carboxamide] | 10 to 1000 nM | 10 to 1000 nM | –
16 | O=C(Nc1ccc(O[C@@H]2C[C@@H]3C[C@@H]3C2)c(F)c1)c1nc(N2CC3CCC3C2)oc1CC(F)(F)F (stereo partly drawn) [Example 161, N-(4-(cis-bicyclo[3.1.0]hexan-3-yloxy)-3-fluorophenyl)-2-(3-azabicyclo[3.2.0]heptan-3-yl)-5-(2,2,2-trifluoroethyl)oxazole-4-carboxamide] | 10 to 1000 nM | 10 to 1000 nM | –
17 | O=C(Nc1ccc(N2CCCCC2)c(F)c1)c1nc(N2CCCC2)oc1CC(F)(F)F [Example 32, N-(3-fluoro-4-(piperidin-1-yl)phenyl)-2-(pyrrolidin-1-yl)-5-(2,2,2-trifluoroethyl)oxazole-4-carboxamide] | 1000 to 10000 nM | 1000 to 10000 nM | –

More lines, main results first:

Row | EC50 (TRPML1; [1]) | SMILES | EC50 (TFEB) | EC50 (TRPML1)
18 | 10 to 1000 nM | CCc1oc(N2CC(CC)(CC)C2)nc1C(=O)Nc1cc(F)c(O[C@@H]2C[C@@H]3C[C@@H]3C2)c(Cl)c1 [Example 221, N-(4-(cis-bicyclo[3.1.0]hexan-3-yloxy)-3-chloro-5-fluorophenyl)-2-(3,3-diethylazetidin-1-yl)-5-ethyloxazole-4-carboxamide] | 10 to 1000 nM | –
19 | 10 to 1000 nM | CCC1(CC)CN(c2nc(C(=O)Nc3cc(C)c(OC4CC5CC(C5)C4)c(F)c3)c(CCF)o2)C1 (centres unmarked) [Example 282, N-(4-(bicyclo[3.1.1]heptan-3-yloxy)-3-fluoro-5-methylphenyl)-2-(3,3-diethylazetidin-1-yl)-5-(2-fluoroethyl)oxazole-4-carboxamide] | 10 to 1000 nM | –
20 | 10 to 1000 nM | CCC1(OC)CN(c2nc(C(=O)Nc3cc(F)c(OC4CC5CC(C5)C4)c(F)c3)c(CC(F)(F)F)o2)C1 (centres unmarked) [Example 148, N-(4-(bicyclo[3.1.1]heptan-3-yloxy)-3,5-difluorophenyl)-2-(3-ethyl-3-methoxyazetidin-1-yl)-5-(2,2,2-trifluoroethyl)oxazole-4-carboxamide] | 10 to 1000 nM | –
21 | 10 to 1000 nM | CCc1oc(N2CCCC2)nc1C(=O)Nc1cc(F)c(O[C@@H]2C[C@@H]3C[C@@H]3C2)c(F)c1 [Example 244, N-(4-(cis-bicyclo[3.1.0]hexan-3-yloxy)-3,5-difluorophenyl)-5-ethyl-2-(pyrrolidin-1-yl)oxazole-4-carboxamide] | 10 to 1000 nM | –
22 | 1000 to 10000 nM | CC(C)Cc1oc(N2CCCC2)nc1C(=O)Nc1ccc(OC2CCCC2(F)F)c(F)c1 (centres unmarked) [Example 111, N-(4-((2,2-difluorocyclopentyl)oxy)-3-fluorophenyl)-5-isobutyl-2-(pyrrolidin-1-yl)oxazole-4-carboxamide] | 10 to 1000 nM | –
23 | 10 to 1000 nM | COC1(C)CN(c2nc(C(=O)Nc3cc(F)c(O[C@@H]4C[C@@H]5C[C@@H]5C4)c(F)c3)c(CCF)o2)C1 [Example 276, N-(4-(cis-bicyclo[3.1.0]hexan-3-yloxy)-3,5-difluorophenyl)-5-(2-fluoroethyl)-2-(3-methoxy-3-methylazetidin-1-yl)oxazole-4-carboxamide] | 10 to 1000 nM | –
24 | 10 to 1000 nM | O=C(Nc1ccc(O[C@@H]2CC3C[C@@H]3C2)c(F)c1)c1nc(N2CCC3CC32)oc1CC(F)(F)F (stereo partly drawn) [Example 154, 2-(2-azabicyclo[3.1.0]hexan-2-yl)-N-(4-(cis-bicyclo[3.1.0]hexan-3-yloxy)-3-fluorophenyl)-5-(2,2,2-trifluoroethyl)oxazole-4-carboxamide] | 10 to 1000 nM | –
25 | 10 to 1000 nM | O=C(Nc1cc(F)c(O[C@@H]2C[C@@H]3C[C@@H]3C2)c(F)c1)c1nc(N2CCC3COCC32)oc1CC(F)(F)F (stereo partly drawn) [Example 144, N-(4-(cis-bicyclo[3.1.0]hexan-3-yloxy)-3,5-difluorophenyl)-2-(hexahydro-1H-furo[3,4-b]pyrrol-1-yl)-5-(2,2,2-trifluoroethyl)oxazole-4-carboxamide] | 10 to 1000 nM | –

From patent US12098145B2 (Libra Therapeutics, Inc., priority 2022, dated 2024)
